Data set [1] concerns the target T1, NLRP3 (Homo sapiens (Human), UniProt Q96P20). Nature of the data set: THP-1 cells pyroptosis assay (LPS + nigericin, resazurin read-out). Type of data set: cell-based. Particulars: 1 μg/ml LPS, 5 μM nigericin. Summed up:
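LPS-primed (1 μg/ml) human THP-1 cells in serum-free RPMI were exposed to compound (8-point half-log series, top dose as printed "10M") for 3 h at 37 °C, then to nigericin 5 μM for 1 h. Remaining viability was read by resazurin (100 μM, 1-2 h) fluorescence, and IC50 came from 4-parameter variable-slope regression.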
A general note: Alamar Blue is a resazurin reagent that responds to reducing activity.

For data set [2], the target named is T1, NLRP3. Nature of the data set: Human whole blood IL1β release assay (LPS + nigericin). Format: cell-based. Particulars: human whole blood, 1 μg/ml LPS, nigericin, IL-1β release; read-out: HWB IC50. An outline of the steps: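 Healthy-donor heparinized whole blood with 1 μg/ml LPS preincubated 3 h at 37 °C with compound (8-point half-log, top 10 μM, 0.1% DMSO), then nigericin 1 h. Supernatant IL-1β by AlphaLISA; IC50 from 4-parameter variable-slope fit.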

A short description of data set [3]: PK, intravenous administration. Format: in vivo, male Sprague Dawley rats. Particulars: male, Sprague Dawley, plasma, rat, intravenous; for AUC: read-out: AUC; for clearance: read-out: Cl; for half-life: read-out: T1/2 (converted); for Vd: read-out: Vdss. On the procedure:
(§1) Pharmacokinetic parameters were determined in male Sprague Dawley rats (Charles River, UK, 250-300 g; or Vital River Laboratory Animal Technology Co Ltd, Beijing, China, 7-9 weeks old). Animals were individually housed during the study and maintained under a 12 h light/dark cycle. Animals had free access to food and water except that orally dosed animals were food deprived overnight prior to the study. For intravenous administration, compounds were formulated as a solution in water or DMSO:PBS [10:90] in 2 mL/kg dosing volume and administered via tail vein. For oral administration, compounds were formulated as a solution in water or DMSO:water [10:90] in 5 mL/kg dosing volume and administered orally. Serial blood samples (about 120-300 μL) were taken from each animal at each of 8 time-points post dose (0.083, 0.25, 0.5, 1, 2, 4, 8 and 24 h). Samples were held on ice for no longer than 30 minutes before centrifugation (10,000 rpm (8,385 g) for 3 minutes; or 5,696 rpm (3,000 g) for 15 minutes) for plasma generation. Plasma was frozen on dry ice prior to bioanalysis. PK parameters were generated from LC-MS/MS data using Dotmatics or Phoenix WinNonlin 6.3 software.

A short description of a further data set: PK, oral administration. Type of data set: in vivo, male Sprague Dawley rats. Particulars: male, Sprague Dawley, plasma, rat, dose 3 mg/kg. On the procedure: as §1

Counter-ions that a name gives are not always drawn. Like-named read-outs stand apart in the source and are kept apart here.

T1 sequence (Q96P20 whole entry): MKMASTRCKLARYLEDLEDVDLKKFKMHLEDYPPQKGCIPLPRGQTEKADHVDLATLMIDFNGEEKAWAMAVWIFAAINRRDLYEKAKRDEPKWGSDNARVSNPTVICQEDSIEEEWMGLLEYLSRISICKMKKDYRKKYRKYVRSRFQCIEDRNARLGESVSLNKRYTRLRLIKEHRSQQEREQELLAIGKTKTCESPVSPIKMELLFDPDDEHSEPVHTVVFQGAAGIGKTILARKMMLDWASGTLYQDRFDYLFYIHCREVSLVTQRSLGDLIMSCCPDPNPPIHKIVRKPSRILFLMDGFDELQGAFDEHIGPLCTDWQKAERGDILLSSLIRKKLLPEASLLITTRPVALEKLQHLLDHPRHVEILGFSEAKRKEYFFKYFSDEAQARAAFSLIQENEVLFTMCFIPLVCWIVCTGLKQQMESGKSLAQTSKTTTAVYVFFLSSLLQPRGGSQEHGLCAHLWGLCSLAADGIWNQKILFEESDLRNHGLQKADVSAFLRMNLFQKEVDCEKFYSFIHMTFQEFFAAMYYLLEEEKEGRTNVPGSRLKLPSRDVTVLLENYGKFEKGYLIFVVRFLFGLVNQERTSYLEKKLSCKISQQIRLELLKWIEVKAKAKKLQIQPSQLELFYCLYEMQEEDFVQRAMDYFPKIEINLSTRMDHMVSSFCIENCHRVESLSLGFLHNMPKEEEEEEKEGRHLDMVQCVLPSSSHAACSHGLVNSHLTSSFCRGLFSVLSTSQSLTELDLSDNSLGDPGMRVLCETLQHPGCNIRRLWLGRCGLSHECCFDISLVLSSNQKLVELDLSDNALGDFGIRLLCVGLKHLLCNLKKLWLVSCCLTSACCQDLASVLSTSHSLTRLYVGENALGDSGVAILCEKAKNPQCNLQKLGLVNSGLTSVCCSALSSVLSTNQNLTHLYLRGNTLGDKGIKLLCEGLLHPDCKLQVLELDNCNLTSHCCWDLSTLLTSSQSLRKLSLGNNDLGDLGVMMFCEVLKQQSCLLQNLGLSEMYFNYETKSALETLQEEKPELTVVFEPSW

By IC50 is commonly meant the midpoint of a concentration-inhibition curve. As usually defined, the AUC is the area under the concentration-time curve, a measure of exposure. Take `CN1CCC(S(=O)(=O)NC(=O)Nc2c3c(cc4c2CCC4)CCC3)CC1` [Example 1, N-((1,2,3,5,6,7-Hexahydro-s-indacen-4-yl)carbamoyl)-1-methylpiperidine-4-sulfonamide, potassium salt]: on NLRP3 [1], the 50% inhibitory concentration (IC50) lay within 1000 to 10000 nM. For the same compound, the IC50 on NLRP3 [2] was in the range of 1000 to 10000 nM. Besides, in data set [3] (dose 1 mg/kg), the AUC worked out at 1950 ng·h/mL, the clearance was determined as 8.5 mL/min/kg, the half-life was 1.2 h and the Vd was 0.58 L/kg.

As a reminder, the Cmax is the maximum level reached in the sampled fluid or tissue. One may read the Tmax as the time at which the peak concentration occurs. For the compound `CCN1CCC(S(=O)(=O)NC(=O)Nc2c3c(cc4c2CCC4)CCC3)CC1` [Example 6, 1-Ethyl-N-((1,2,3,5,6,7-hexahydro-s-indacen-4-yl)carbamoyl)piperidine-4-sulfonamide, potassium salt], the IC50 at NLRP3 [1] is under 1000 nM. The IC50 at NLRP3 [2] was under 1000 nM. Further, in data set [3] (dose 1 mg/kg), the AUC stood at 2340 ng·h/mL, the clearance stood at 7.2 mL/min/kg, the half-life is 2.7 h and the Vd turned out to be 0.61 L/kg. Also, in the data set “PK, oral administration”, the area under the curve (AUC) was 5400 ng·h/mL, the concentration peaked (Cmax) at 1770 ng/mL, the time of peak concentration (Tmax) was determined as 0.5 h and the half-life is 2.7 h.

Consider `CCN1CCCC(S(=O)(=O)NC(=O)Nc2c3c(cc4c2CCC4)CCC3)C1` (stereo not shown) [Example 9, 1-Ethyl-N-((1,2,3,5,6,7-hexahydro-s-indacen-4-yl)carbamoyl)-piperidine-3-sulfonamide, potassium salt], for which the 50% inhibitory concentration (IC50) at NLRP3 [1] is under 1000 nM. Further, the half-maximal inhibitory concentration (IC50) on NLRP3 [2] was under 1000 nM. In addition, in data set [3] (dose 1 mg/kg), the AUC amounted to 2670 ng·h/mL, the clearance is 6.5 mL/min/kg, the half-life is 3.9 h and the Vd was 0.63 L/kg.

As to `CC(C)N1CCCC(S(=O)(=O)NC(=O)Nc2c3c(cc4c2CCC4)CCC3)C1` (stereo not shown) [Example 31, N-((1,2,3,5,6,7-Hexahydro-s-indacen-4-yl)carbamoyl)-1-iso-propyl-piperidine-3-sulfonamide, potassium salt], the IC50 at NLRP3 [1] is under 1000 nM. For the same compound, on NLRP3 [2], the half-inhibitory concentration (IC50) was under 1000 nM. In data set [3] (dose 1 mg/kg), the AUC is 2750 ng·h/mL, the clearance was 6.1 mL/min/kg, the half-life was 4.5 h and the Vd is 0.47 L/kg.

Regarding `CC(C)N1CCC(S(=O)(=O)NC(=O)Nc2c3c(cc4c2CCC4)CCC3)C1` (stereo not shown) [Example 41, N-((1,2,3,5,6,7-Hexahydro-s-indacen-4-yl)carbamoyl)-1-iso-propylpyrrolidine-3-sulfonamide, potassium salt], the IC50 at NLRP3 [1] was under 1000 nM. Besides, the IC50 on NLRP3 [2] is under 1000 nM. For the same compound, in data set [3] (dose 1 mg/kg), the AUC worked out at 1850 ng·h/mL, the clearance worked out at 9.1 mL/min/kg, the half-life is 2.9 h and the Vd was determined as 0.78 L/kg.

For `CC(C)N1CC(S(=O)(=O)NC(=O)Nc2c3c(cc4c2CCC4)CCC3)C1` [Example 46, N-((1,2,3,5,6,7-Hexahydro-s-indacen-4-yl)carbamoyl)-1-iso-propylazetidine-3-sulfonamide, potassium salt], the IC50 at NLRP3 [1] is under 1000 nM. For the same compound, the half-maximal inhibitory concentration (IC50) on NLRP3 [2] was under 1000 nM. In addition, in data set [3] (dose 1 mg/kg), the AUC came out at 2080 ng·h/mL, the clearance stood at 8.2 mL/min/kg, the half-life is 1.2 h and the Vd amounted to 0.45 L/kg. Moreover, in “PK, oral administration”, the AUC is 3510 ng·h/mL, the Cmax worked out at 1330 ng/mL, the Tmax was found to be 0.67 h and the half-life is 1.4 h.

Take `CCCN1CC(S(=O)(=O)NC(=O)Nc2c3c(cc4c2CCC4)CCC3)C1` [Example 76, N-((1,2,3,5,6,7-Hexahydro-s-indacen-4-yl)carbamoyl)-1-propylazetidine-3-sulfonamide, potassium salt]: on NLRP3 [1], the concentration for half-maximal inhibition (IC50) is under 1000 nM. Besides, the IC50 at NLRP3 [2] is under 1000 nM. In data set [3] (dose 1 mg/kg), the exposure (AUC) was 2650 ng·h/mL, the clearance came out at 6.3 mL/min/kg, the half-life was 1 h and the Vd is 0.25 L/kg.

In the case of `O=C(Nc1c2c(cc3c1CCC3)CCC2)NS(=O)(=O)C1CN(CC2CC2)C1` [Example 94, 1-(Cyclopropylmethyl)-N-((1,2,3,5,6,7-hexahydro-s-indacen-4-yl)carbamoyl)azetidine-3-sulfonamide, potassium salt], the half-maximal inhibitory concentration (IC50) at NLRP3 [1] was under 1000 nM. In addition, the concentration for half-maximal inhibition (IC50) on NLRP3 [2] is under 1000 nM. In data set [3] (dose 2.09 mg/kg), the exposure (AUC) was determined as 1410 ng·h/mL, the clearance came to 25.2 mL/min/kg, the half-life was 1.1 h and the Vd was found to be 1.62 L/kg.

With `O=C(Nc1c2c(cc3c1CCC3)CCC2)NS(=O)(=O)C1CN(C2CSC2)C1` [Example 109, N-((1,2,3,5,6,7-Hexahydro-s-indacen-4-yl)carbamoyl)-1-(thietan-3-yl)azetidine-3-sulfonamide, potassium salt], the 50% inhibitory concentration (IC50) on NLRP3 [1] is under 1000 nM. The half-maximal inhibitory concentration (IC50) at NLRP3 [2] was under 1000 nM. Further, in data set [3] (dose 1 mg/kg), the area under the curve (AUC) was determined as 1730 ng·h/mL, the clearance worked out at 9.6 mL/min/kg, the half-life was 1.3 h and the Vd was 0.64 L/kg.

As for `COc1cc(-c2ccc3c(c2NC(=O)NS(=O)(=O)c2ccc(=O)n(C(C)C)c2)CCC3)ccn1` [Example 153, 1-Isopropyl-N-((5-(2-methoxypyridin-4-yl)-2,3-dihydro-1H-inden-4-yl)carbamoyl)-6-oxo-1,6-dihydropyridine-3-sulfonamide], on NLRP3 [1], the IC50 is under 1000 nM. The IC50 at NLRP3 [2] is under 1000 nM. In data set [3] (dose 1 mg/kg), the exposure (AUC) was 511 ng·h/mL, the clearance came out at 32.6 mL/min/kg, the half-life was 1.1 h and the Vd was found to be 1.21 L/kg.

As for `CC(C)n1cc(S(=O)(=O)NC(=O)Nc2c3c(cc4c2CCC4)CCC3)ccc1=O` [Example 185, N-((1,2,3,5,6,7-Hexahydro-s-indacen-4-yl)carbamoyl)-1-isopropyl-6-oxo-1,6-dihydropyridine-3-sulfonamide, sodium salt], the IC50 at NLRP3 [1] is under 1000 nM; at NLRP3 [2], 1000 to 10000 nM.

Source of the values: patent US20250115591A1, “NOVEL SULFONAMIDE CARBOXAMIDE COMPOUNDS” (INFLAZOME LIMITED, priority 2017, published 2025).
